What all share (format): biochemical
Experiment [1] deals with T1, EML4-ALK fusion protein v1 (Homo sapiens, UniProt Q9UM73, D1529E/I1461V/K1491R).
T1 construct: FLAG (N); made in house
In words: Inhibitory activity against the kinase activity of EML4-ALK fusion protein v1 (Test Example 1). The note with it: ATP 100 μM, reaction 1 hour, HTRF KinEASE-TK. On the procedure:
EML4-ALK fusion protein v1 (purified from BA/F3 cells expressing EML4-ALK fusion protein v1) was investigated for its phosphorylation activity toward a peptide substrate by using a kinase activity detection kit (HTRF KinEASE-TK; Cisbio Inc.). […] The ATP concentration used was 100 μM. Another reaction solution was prepared to contain the enzyme protein but no test compound (in which the solvent DMSO alone was added at 0.4% in place of the test compound), followed by reaction in the same manner with or without ATP addition. […] The concentration causing 50% inhibition (IC50) was calculated for each test compound by the logistic regression method.
N-terminally FLAG-tagged EML4-ALK fusion protein v1 was inserted into a vector pMX-iresCD8 capable of co-expression of insert cDNA and cell surface antigen CD8 (J. Biol. Chem., 2001, vol. 276, p. 39012-39020) to create a vector FLAG-EML4-ALKv1/pMX-iresCD8 expressing both FLAG-EML4-ALKv1 and CD8. FLAG-EML4-ALKv1/pMX-iresCD8 was used to create a recombinant retrovirus in the same manner as described above and infected into mouse lymphoid cell line BA/F3 cells. Using a magnetic bead reagent for cell separation and a purification column (anti-CD8 monoclonal antibody immobilized on magnetic beads and a MiniMACS purification column; both are products of Miltenyi Biotec Inc.), cell surface CD8-expressing cells were purified conveniently. […] After washing 3 times with PBS, the cells were lysed in a lysis solution (50 mM Tris.HCl (pH 7.4), 150 mM NaCl, 1% Triton X100, 5 mM EDTA, 5 mM EGTA, 1 mM NaVO4, 1 mM DTT and protease inhibitor cocktail complete). The EML4-ALK fusion protein v1 present in the supernatant obtained after centrifugation was purified using ANTI-FLAG M2 Affinity Gel (SIGMA-ALDRICH Inc.) according to the method described in the product information document.
The EML4-ALK fusion protein v1 purified as above was investigated for its phosphorylation activity toward a peptide substrate using a kinase activity detection kit (HTRF KinEASE-TK; Cisbio Inc.). Using TK substrate 1, which was included in the kit, as the substrate, and after adding no ATP or 100 μM ATP, the mixtures were reacted at room temperature for 1 hour, and the count of HTRF was detected as recommended by the Kits manufacturer.

The target in experiment [2] is T2, PHKG1 (Homo sapiens, UniProt Q16816).
T2 construct: purchased Carna Biosciences Inc., Japan (contract measurement)
T2 sequence (Q16816 whole entry): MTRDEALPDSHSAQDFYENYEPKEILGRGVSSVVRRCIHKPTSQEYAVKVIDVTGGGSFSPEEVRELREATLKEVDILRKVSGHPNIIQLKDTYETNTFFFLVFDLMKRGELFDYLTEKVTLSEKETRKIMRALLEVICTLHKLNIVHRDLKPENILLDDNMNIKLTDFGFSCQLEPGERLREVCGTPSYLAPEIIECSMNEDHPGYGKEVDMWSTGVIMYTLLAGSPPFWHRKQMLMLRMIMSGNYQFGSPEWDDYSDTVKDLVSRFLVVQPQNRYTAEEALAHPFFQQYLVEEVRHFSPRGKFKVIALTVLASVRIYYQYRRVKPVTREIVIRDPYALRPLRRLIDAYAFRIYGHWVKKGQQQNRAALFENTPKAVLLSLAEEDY
In words: Kinase inhibition profiling, PHKG1 (Test Example 6). Particulars: 100 nM; read-out: inhibitory activity against PHKG1.

For experiment [3], the target named is T3, MUSK (Homo sapiens, UniProt O15146).
T3 sequence (O15146 24-869): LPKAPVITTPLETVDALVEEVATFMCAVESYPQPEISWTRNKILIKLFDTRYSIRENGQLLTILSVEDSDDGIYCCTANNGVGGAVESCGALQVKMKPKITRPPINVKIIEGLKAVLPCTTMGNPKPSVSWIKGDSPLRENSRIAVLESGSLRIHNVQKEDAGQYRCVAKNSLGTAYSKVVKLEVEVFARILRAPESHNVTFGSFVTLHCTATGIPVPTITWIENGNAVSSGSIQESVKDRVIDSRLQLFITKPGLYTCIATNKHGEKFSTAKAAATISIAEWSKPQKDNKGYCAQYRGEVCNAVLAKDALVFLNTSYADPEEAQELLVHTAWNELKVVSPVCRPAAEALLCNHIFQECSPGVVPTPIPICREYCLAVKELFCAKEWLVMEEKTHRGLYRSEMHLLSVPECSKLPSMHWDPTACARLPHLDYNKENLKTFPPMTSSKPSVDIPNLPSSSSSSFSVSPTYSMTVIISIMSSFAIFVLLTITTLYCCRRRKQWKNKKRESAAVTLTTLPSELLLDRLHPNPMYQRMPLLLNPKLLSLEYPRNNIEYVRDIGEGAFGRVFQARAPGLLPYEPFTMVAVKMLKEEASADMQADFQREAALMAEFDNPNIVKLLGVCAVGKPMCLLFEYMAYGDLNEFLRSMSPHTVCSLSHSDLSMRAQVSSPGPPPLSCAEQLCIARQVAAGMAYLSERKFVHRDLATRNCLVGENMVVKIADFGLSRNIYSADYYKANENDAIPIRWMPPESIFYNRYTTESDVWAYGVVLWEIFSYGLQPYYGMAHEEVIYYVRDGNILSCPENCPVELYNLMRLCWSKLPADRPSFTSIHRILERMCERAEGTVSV
In words: Kinase inhibition profiling, MUSK (Test Example 6). Details: purchased Carna Biosciences Inc., Japan (contract measurement). The note with it: 100 nM; read-out: inhibitory activity against MUSK.

The structures appear in SMILES notation. Where only a bound is given, the exact number is not on record here.

T1 sequence (Q9UM73 with tags, fused parts or gaps I1461V/K1491R/D1529E): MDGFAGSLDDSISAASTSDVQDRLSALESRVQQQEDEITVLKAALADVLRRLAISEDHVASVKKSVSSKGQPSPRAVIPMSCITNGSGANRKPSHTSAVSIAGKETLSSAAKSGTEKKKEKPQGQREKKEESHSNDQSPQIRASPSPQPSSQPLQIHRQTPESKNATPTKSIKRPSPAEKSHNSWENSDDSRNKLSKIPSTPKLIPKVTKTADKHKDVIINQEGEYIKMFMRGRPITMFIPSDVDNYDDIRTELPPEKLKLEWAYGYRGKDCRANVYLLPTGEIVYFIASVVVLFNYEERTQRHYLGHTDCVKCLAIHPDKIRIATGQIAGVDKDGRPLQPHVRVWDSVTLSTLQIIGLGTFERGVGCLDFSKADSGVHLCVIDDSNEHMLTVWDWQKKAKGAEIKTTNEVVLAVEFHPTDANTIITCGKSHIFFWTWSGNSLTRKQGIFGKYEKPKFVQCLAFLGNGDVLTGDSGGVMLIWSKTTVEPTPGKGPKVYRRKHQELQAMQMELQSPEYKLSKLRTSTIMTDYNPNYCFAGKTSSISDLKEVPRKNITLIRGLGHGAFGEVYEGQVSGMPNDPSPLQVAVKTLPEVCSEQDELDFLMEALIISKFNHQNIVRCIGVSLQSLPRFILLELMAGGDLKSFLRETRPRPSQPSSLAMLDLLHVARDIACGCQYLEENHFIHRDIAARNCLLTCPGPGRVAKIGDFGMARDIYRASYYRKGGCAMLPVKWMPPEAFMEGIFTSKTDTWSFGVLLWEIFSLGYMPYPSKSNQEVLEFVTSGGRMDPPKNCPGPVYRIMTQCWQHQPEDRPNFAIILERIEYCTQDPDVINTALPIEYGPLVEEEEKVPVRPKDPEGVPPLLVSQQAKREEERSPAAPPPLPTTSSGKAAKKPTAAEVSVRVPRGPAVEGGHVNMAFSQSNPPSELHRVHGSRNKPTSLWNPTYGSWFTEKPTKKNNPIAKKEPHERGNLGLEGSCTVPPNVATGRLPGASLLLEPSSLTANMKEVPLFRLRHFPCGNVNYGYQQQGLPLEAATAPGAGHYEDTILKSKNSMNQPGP

Molecule `COc1cc(N2CCC(N3CCN(C)CC3)CC2)ccc1Nc1ncnc(Nc2ccccc2S(=O)(=O)C(C)C)n1` [Example 23] displayed an IC50 in experiment [1] of 17 nM. The inhibition at 0.1 µM in experiment [2] and in experiment [3] was below 20% each time.

Regarding `CCNS(=O)(=O)c1ccccc1Nc1ncnc(Nc2ccc(N3CCC(N4CCN(C)CC4)CC3)cc2OC)n1` [Example 123], the IC50 in experiment [1] came out at 33 nM.

As a reminder, the IC50 is the concentration that gives 50% inhibition.

The values are drawn from US20130096100A1, “DI(ARYLAMINO)ARYL COMPOUND” (ASTELLAS PHARMA INC., priority 2007, published 2013).
